Here are results for one molecule from the NIST ThermoML archive (doi:10.1016/j.jct.2017.12.022).

The nature of series [1]: Molar enthalpy of transition or fusion. As to conditions: Crystal; DSC.
For series [2] the following is noted: Crystal; DTA.

SMILES strings stand for the structures. Numbers after ± are expanded uncertainties.

Regarding `COC(=O)c1ccc(C(=O)OC)cc1` [dimethyl 1,4-benzenedicarboxylate], the “Molar enthalpy of transition or fusion” value in series [1] turned out to be 35.5 ± 0.8 kJ/mol. The Normal melting temperature in series [2] is 140.8 ± 1 °C.
